Measured values published in US20120270929A1, “MODULATION OF TTC39 EXPRESSION TO INCREASE HDL” (ISIS Pharmaceuticals, Inc., priority 2009, published 2012).
pIC50: −log10 of the molar value. Oligonucleotides are written 5' to 3', each unit as a sugar letter and its base; * is a phosphorothioate linkage, no mark a phosphodiester; rarer units and linkages stand in square brackets, end groups in braces. Plain capitals give the bases only. e = 2'-O-(2-methoxyethyl) (MOE); [5mC] = 5-methylcytosine; d = 2'-deoxy (DNA)

What was measured:
Type in all cases: cell-based
murine TTC39B mRNA [1] = test: Antisense inhibition of murine TTC39B in mouse primary hepatocytes, single dose; settings: 100 nM, cytofectin, ~24 h, vs untreated control; gapmers targeted to SEQ ID NO: 6
Protocol: Antisense oligonucleotides targeted to a TTC39B nucleic acid were tested for their effects on TTC39B mRNA in vitro. Cultured mouse primary hepatocytes at a density of 10,000 cells per well were transfected using cytofectin reagent with 100 nM antisense oligonucleotide. After a treatment period of approximately 24 hours, RNA was isolated from the cells and TTC39B mRNA levels were measured by quantitative real-time PCR. TTC39B mRNA levels were adjusted according to total RNA content, as measured by RIBOGREEN®. Results are presented as percent inhibition of TTC39B, relative to untreated control cells.
The chimeric antisense oligonucleotides in Tables 1 and 2 were designed as 5-10-5 MOE gapmers. The gapmers are 20 nucleotides in length, wherein the central gap segment is comprised of 10 2′-deoxynucleotides and is flanked on both sides (in the 5′ and 3′ directions) by wings comprising 5 nucleotides each. Each nucleotide in the 5′ wing segment and each nucleotide in the 3′ wing segment has a 2′-MOE modification. The internucleoside linkages throughout each gapmer are phosphorothioate (P═S) linkages. All cytosine residues throughout each gapmer are 5-methylcytosines. “Target start site” indicates the 5′-most nucleotide to which the gapmer is targeted. “Target stop site” indicates the 3′-most nucleotide to which the gapmer is targeted. Each gapmer listed in Table 1 is targeted to SEQ ID NO: 6 (GENBANK Accession No. NM_027238.2) and each gapmer listed in Table 2 is targeted to SEQ ID NO: 10 (the complement of GENBANK Accession No. NT—039260.7 truncated at nucleotides 22491001 to 22601000), SEQ ID NO: 11 (GENBANK Accession No. BY244623.1), SEQ ID NO: 12 (GENBANK Accession No. BY260936), SEQ ID NO: 13 (GENBANK Accession No. BM935568.1) or SEQ ID NO: 14 (GENBANK Accession No. BY728780.1).

murine TTC39B mRNA [2] = test: Dose-dependent antisense inhibition of murine TTC39B in mouse primary hepatocytes (Example 2); settings: cytofectin, ~16 h
Protocol: Cells were plated at a density of 10,000 cells per well and transfected using cytofectin reagent with 25 nM, 50 nM, 100 nM, and 200 nM concentrations of antisense oligonucleotide, as specified in Table 3. After a treatment period of approximately 16 hours, RNA was isolated from the cells and TTC39B mRNA levels were measured by quantitative real-time PCR. Murine primer probe set mTtc39b_LTS00287 (forward sequence: […], incorporated herein as SEQ ID NO: 94; reverse sequence: […], incorporated herein as SEQ ID NO: 95; probe sequence: […], incorporated herein as SEQ ID NO: 96) was used to measure mRNA levels. TTC39B mRNA levels were adjusted according to total RNA content, as measured by RIBOGREEN®. Results are presented as percent inhibition of TTC39B, relative to untreated control cells.

murine TTC39C mRNA [3] = test: Dose-dependent antisense inhibition of murine TTC39C in mouse primary hepatocytes; settings: electroporation, ~16 h; for pIC50: mouse primary hepatocytes
Protocol: Thirty antisense oligonucleotides were selected from the study described in Example 8 and further tested at various doses in mouse primary hepatocytes. Cells were plated at a density of 30,000 cells per well and transfected using electroporation with 500 nM, 1,000 nM, 2,000 nM, 4,000 nM, and 8,000 nM concentrations of antisense oligonucleotide, as specified in Table 30. After a treatment period of approximately 16 hours, RNA was isolated from the cells and TTC39C mRNA levels were measured by quantitative real-time PCR. Murine primer probe set RTS3266 was used to measure mRNA levels. TTC39C mRNA levels were adjusted according to total RNA content, as measured by RIBOGREEN®. Results are presented as percent inhibition of TTC39C, relative to untreated control cells.

murine TTC39C mRNA [4] = test: Antisense inhibition of mouse TTC39C in mouse primary hepatocytes, single dose; settings: 8,000 nM antisense oligonucleotide, electroporation, approximately 24 hours, TTC39C mRNA by real-time PCR (RTS3266), relative to untreated control cells
Protocol: Antisense oligonucleotides were designed targeting a TTC39C nucleic acid and were tested for their effects on TTC39C mRNA in vitro. Cultured mouse primary hepatocytes at a density of 30,000 cells per well were transfected by electroporation with 8,000 nM antisense oligonucleotide. After a treatment period of approximately 24 hours, RNA was isolated from the cells and TTC39C mRNA levels were measured by quantitative real-time PCR. Mouse primer probe set RTS3266 (forward sequence […], designated herein as SEQ ID NO: 140; reverse sequence […], designated herein as SEQ ID NO: 141; probe sequence […], designated herein as SEQ ID NO: 142). TTC39C mRNA levels were adjusted according to total RNA content, as measured by RIBOGREEN®. Results are presented as percent inhibition of TTC39C, relative to untreated control cells.
The chimeric antisense oligonucleotides targeting TTC39C were designed as 5-10-5 MOE gapmers. The gapmers are 20 nucleotides in length, wherein the central gap segment is comprised of ten 2′-deoxynucleotides and is flanked on both sides (in the 5′ and 3′ directions) by wings comprising five nucleotides each. Each nucleotide in the 5′ wing segment and each nucleotide in the 3′ wing segment has a 2′-MOE modification. The internucleoside linkages throughout each gapmer are phosphorothioate (P═S) linkages. All cytosine residues throughout each gapmer are 5-methylcytosines. “Mouse Target start site” indicates the 5′-most nucleotide to which the gapmer is targeted in the mouse gene sequence.

Substance	% inhibition of murine TTC39B mRNA (murine TTC39B mRNA [1]) [%]	percent inhibition of TTC39B mRNA (murine TTC39B mRNA [2]; 25 nM) [%]	percent inhibition of TTC39B mRNA (murine TTC39B mRNA [2]; 50 nM) [%]	percent inhibition of TTC39B mRNA (murine TTC39B mRNA [2]; 100 nM) [%]	percent inhibition of TTC39B mRNA (murine TTC39B mRNA [2]; 200 nM) [%]	percent inhibition of TTC39C mRNA (murine TTC39C mRNA [3]; 500.0 nM) [%]	percent inhibition of TTC39C mRNA (murine TTC39C mRNA [3]; 1000.0 nM) [%]	percent inhibition of TTC39C mRNA (murine TTC39C mRNA [3]; 2000.0 nM) [%]	percent inhibition of TTC39C mRNA (murine TTC39C mRNA [3]; 4000.0 nM) [%]	percent inhibition of TTC39C mRNA (murine TTC39C mRNA [3]; 8000.0 nM) [%]	% inhibition (murine TTC39C mRNA [4]) [%]	pIC50 (murine TTC39C mRNA [3])
GCCAATCTAAAAATGGCTCA (antisense eG*e[5mC]*e[5mC]*eA*eA*dT*d[5mC]*dT*dA*dA*dA*dA*dA*dT*dG*eG*e[5mC]*eT*e[5mC]*eA) [ISIS 447135]	67	35	52	66	76							
GCTCAGCTTGCAAGGGCCGC (antisense eG*e[5mC]*eT*e[5mC]*eA*dG*d[5mC]*dT*dT*dG*d[5mC]*dA*dA*dG*dG*eG*e[5mC]*e[5mC]*eG*e[5mC]) [ISIS 447127]	65	40	62	84	90							
GGACTGCCTGCCATGGGTGC (antisense eG*eG*eA*e[5mC]*eT*dG*d[5mC]*d[5mC]*dT*dG*d[5mC]*d[5mC]*dA*dT*dG*eG*eG*eT*eG*e[5mC]) [ISIS 447146]	69	44	55	78	89							
GGAGGTCCCCTGGCCACGGC (antisense eG*eG*eA*eG*eG*dT*d[5mC]*d[5mC]*d[5mC]*d[5mC]*dT*dG*dG*d[5mC]*d[5mC]*eA*e[5mC]*eG*eG*e[5mC]) [ISIS 447151]	65	39	56	76	85							
GGCACTCTTTATATATTTGG (antisense eG*eG*e[5mC]*eA*e[5mC]*dT*d[5mC]*dT*dT*dT*dA*dT*dA*dT*dA*eT*eT*eT*eG*eG) [ISIS 447111]	71	30	60	77	87							
GGTGGAGTCTGGCCCTCAGC (antisense eG*eG*eT*eG*eG*dA*dG*dT*d[5mC]*dT*dG*dG*d[5mC]*d[5mC]*d[5mC]*eT*e[5mC]*eA*eG*e[5mC]) [ISIS 447142]	66	36	64	85	91							
GTTGCCTTGGACCATTTACT (antisense eG*eT*eT*eG*e[5mC]*d[5mC]*dT*dT*dG*dG*dA*d[5mC]*d[5mC]*dA*dT*eT*eT*eA*e[5mC]*eT) [ISIS 447122]	67	35	61	78	88							
ISIS 474515: 5-10-5 MOE gapmer antisense oligonucleotide targeting murine TTC39C (antisense eT*e[5mC]*e[5mC]*e[5mC]*eT*dG*dA*dA*dG*d[5mC]*d[5mC]*dG*dT*dT*dG*eT*eT*eG*eA*eG)						56	62	79	91	94	96	
ISIS 474516: 5-10-5 MOE gapmer antisense oligonucleotide targeting murine TTC39C (antisense eT*eT*eA*eG*eT*dG*dG*dA*d[5mC]*dT*dA*dT*dG*dA*dT*eT*eT*e[5mC]*eT*eG)						34	61	71	88	95	94	6.10
ISIS 474517: 5-10-5 MOE gapmer antisense oligonucleotide targeting murine TTC39C (antisense e[5mC]*e[5mC]*eT*e[5mC]*eG*dA*dA*dT*dG*dT*d[5mC]*dA*dT*d[5mC]*dA*eT*eG*eG*e[5mC]*eG)						60	67	89	95	97	98	
ISIS 474518: 5-10-5 MOE gapmer antisense oligonucleotide targeting murine TTC39C (antisense eG*eT*eA*eG*eT*d[5mC]*dT*dT*dT*dA*dA*dG*dT*d[5mC]*dA*eT*e[5mC]*eG*e[5mC]*eA)						61	73	90	94	96	96	
ISIS 474521: 5-10-5 MOE gapmer antisense oligonucleotide targeting murine TTC39C (antisense eG*eG*e[5mC]*eT*eT*dT*d[5mC]*d[5mC]*dT*dA*dA*dG*dG*dA*dT*e[5mC]*e[5mC]*eA*e[5mC]*e[5mC])						46	63	84	92	97	97	6.30
TCGAAATGTTTCTTGAGCCT (antisense eT*e[5mC]*eG*eA*eA*dA*dT*dG*dT*dT*dT*d[5mC]*dT*dT*dG*eA*eG*e[5mC]*e[5mC]*eT) [ISIS 447119]	65	28	52	80	77							
TGAATGCTATTATTGGATCT (antisense eT*eG*eA*eA*eT*dG*d[5mC]*dT*dA*dT*dT*dA*dT*dT*dG*eG*eA*eT*e[5mC]*eT) [ISIS 447140]	66	29	55	77	80							
